From patent US10342782B2, “Positive allosteric modulators of the muscarinic acetylcholine receptor M4” (Vanderbilt University, priority 2016, dated 2019)

Molecular target: T1, Human M4 (Homo sapiens, UniProt P08173)
T1 sequence (P08173 1-479): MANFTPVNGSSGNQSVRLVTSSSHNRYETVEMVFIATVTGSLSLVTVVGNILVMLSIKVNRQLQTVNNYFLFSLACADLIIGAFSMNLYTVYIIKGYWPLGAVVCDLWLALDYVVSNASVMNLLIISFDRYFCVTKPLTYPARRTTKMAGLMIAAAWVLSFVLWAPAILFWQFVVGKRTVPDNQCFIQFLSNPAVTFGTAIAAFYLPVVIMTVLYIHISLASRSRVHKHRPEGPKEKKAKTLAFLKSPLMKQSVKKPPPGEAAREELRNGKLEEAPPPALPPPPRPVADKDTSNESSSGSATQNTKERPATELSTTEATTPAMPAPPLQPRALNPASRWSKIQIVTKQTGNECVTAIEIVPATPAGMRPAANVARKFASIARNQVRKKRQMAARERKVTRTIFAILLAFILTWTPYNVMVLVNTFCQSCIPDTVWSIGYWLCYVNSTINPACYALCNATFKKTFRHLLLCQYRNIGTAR
Test: cell-based
Settings: for Emax: CHO-K1
Procedure: Human M4 cDNA, along with the chimeric G protein Gqi5, were transfected into Chinese hamster ovary (CHO-K1) cells purchased from the American Type Culture Collection using Lipofectamine2000. M4/Gqi5/CHO cells were grown in Ham's F-12 medium containing 10% heat-inactivated fetal bovine serum (FBS), 20 mM HEPES, 500 μg/mL G418 sulfate, and 200 μg/mL Hygromycin B.
For high throughput measurement of agonist-evoked increases in intracellular calcium, CHO-K1 cells stably expressing muscarinic receptors were plated in growth medium lacking G418 and hygromycin at 15,000 cells/20 μL/well in Greiner 384-well black-walled, tissue culture (TC)-treated, clear-bottom plates (VWR). Cells were incubated overnight at 37° C. and 5% CO2. […] Test compound CRCs were then transferred to daughter plates (240 nL) using the Echo acoustic plate reformatter (Labcyte, Sunnyvale, Calif.) and then diluted into assay buffer (40 μL) to a 2× stock using a Thermo Fisher Combi (Thermo Fisher Scientific, Waltham, Mass.).
Calcium flux was measured using the Functional Drug Screening System (FDSS) 6000 or 7000 (Hamamatsu Corporation, Tokyo, Japan) as an increase in the fluorescent static ratio. Compounds were applied to cells (20 μL, 2×) using the automated system of the FDSS at 2-4 s into the protocol and the data were collected at 1 Hz. […] Agonist activity was analyzed as a concentration-dependent increase in calcium mobilization upon compound addition. Positive allosteric modulator activity was analyzed as a concentration-dependent increase in the EC20 acetylcholine response. Antagonist activity was analyzed as a concentration-dependent decrease in the EC80 acetylcholine response. Concentration-response curves were generated using a four-parameter logistical equation in XLFit curve fitting software (IDBS, Bridgewater, N.J.) for Excel (Microsoft, Redmond, Wash.) or Prism (GraphPad Software, Inc., San Diego, Calif.).

## Cc1nc2cc(C)c3c(N)c(C(=O)NC4CN(c5ncc(C6CC6)cc5C)C4)sc3n2n1 [Compound 9, 6-amino-N-(1-(5-cyclopropyl-3-methylpyridin-2-yl)azetidin-3-yl)-2,5-dimethylthieno[3,2-e][1,2,4]triazolo[1,5-a]pyridine-7-carboxamide]
  EC50: 863 nM
  Emax: 79%

## Cc1nc2cc(C)c3c(N)c(C(=O)N[C@H]4CCN(c5ccc(F)cn5)C4)sc3n2n1 [Compound 12, (S)-6-amino-N-(1-(5-fluoropyridin-2-yl)pyrrolidin-3-yl)-2,5-dimethylthieno[3,2-e][1,2,4]triazolo[1,5-a]pyridine-7-carboxamide]
  EC50: 596 nM
  Emax: 66%

## Cc1nc2cc(C)c3c(N)c(C(=O)N[C@@H]4CCN(c5ccc(F)cn5)C4)sc3n2n1 [Compound 15, (R)-6-amino-N-(1-(5-fluoropyridin-2-yl)pyrrolidin-3-yl)-2,5-dimethylthieno[3,2-e][1,2,4]triazolo[1,5-a]pyridine-7-carboxamide]
  EC50: 1200 nM
  Emax: 43%

## Cc1nc2cc(C)c3c(N)c(C(=O)NCc4ccc(N5CCN(C)CC5)cc4)sc3n2n1 [Compound 8, 6-amino-2,5-dimethyl-N-(4-(4-methylpiperazin-1-yl)benzyl)thieno[3,2-e][1,2,4]triazolo[1,5-a]pyridine-7-carboxamide]
  EC50: 217 nM
  Emax: 86%
